Converted amounts (≈) assume the structure as drawn.
Columns and labels:
COX-2 = target: T1, COX-2 (Mus musculus, UniProt Q05769); experiment: Evaluation of COX-2 activity: PGE2 formation in aspirin-treated, LPS-stimulated mouse peritoneal macrophages; type: cell-based
T1 sequence (Q05769 18-604): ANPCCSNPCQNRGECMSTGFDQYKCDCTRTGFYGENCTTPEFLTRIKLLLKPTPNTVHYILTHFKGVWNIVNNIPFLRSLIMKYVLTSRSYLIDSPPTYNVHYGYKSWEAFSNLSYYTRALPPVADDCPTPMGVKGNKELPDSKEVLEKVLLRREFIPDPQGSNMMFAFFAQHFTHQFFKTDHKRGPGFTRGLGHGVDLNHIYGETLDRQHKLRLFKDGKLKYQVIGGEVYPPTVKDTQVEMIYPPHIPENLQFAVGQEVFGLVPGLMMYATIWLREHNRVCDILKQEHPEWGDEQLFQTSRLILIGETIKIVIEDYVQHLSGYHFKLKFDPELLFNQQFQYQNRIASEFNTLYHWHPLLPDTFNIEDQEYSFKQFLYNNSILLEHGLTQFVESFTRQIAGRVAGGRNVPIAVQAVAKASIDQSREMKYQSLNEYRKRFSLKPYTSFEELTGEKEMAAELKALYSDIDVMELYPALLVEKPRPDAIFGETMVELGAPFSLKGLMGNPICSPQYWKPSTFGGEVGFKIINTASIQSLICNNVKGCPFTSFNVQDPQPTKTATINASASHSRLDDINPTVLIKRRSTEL
Outline: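 C57BL/6 peritoneal macrophages treated with 500 μM aspirin to block COX-1, adhered, then stimulated with 10 μg/ml LPS for 16 h at 37 °C to induce COX-2.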

COX-1 = target: T2, COX-1 (Mus musculus, UniProt P22437); experiment: Evaluation of COX-1 activity: PGE2 formation in mouse peritoneal macrophages without aspirin and LPS treatment; type: cell-based
T2 sequence (P22437 27-602): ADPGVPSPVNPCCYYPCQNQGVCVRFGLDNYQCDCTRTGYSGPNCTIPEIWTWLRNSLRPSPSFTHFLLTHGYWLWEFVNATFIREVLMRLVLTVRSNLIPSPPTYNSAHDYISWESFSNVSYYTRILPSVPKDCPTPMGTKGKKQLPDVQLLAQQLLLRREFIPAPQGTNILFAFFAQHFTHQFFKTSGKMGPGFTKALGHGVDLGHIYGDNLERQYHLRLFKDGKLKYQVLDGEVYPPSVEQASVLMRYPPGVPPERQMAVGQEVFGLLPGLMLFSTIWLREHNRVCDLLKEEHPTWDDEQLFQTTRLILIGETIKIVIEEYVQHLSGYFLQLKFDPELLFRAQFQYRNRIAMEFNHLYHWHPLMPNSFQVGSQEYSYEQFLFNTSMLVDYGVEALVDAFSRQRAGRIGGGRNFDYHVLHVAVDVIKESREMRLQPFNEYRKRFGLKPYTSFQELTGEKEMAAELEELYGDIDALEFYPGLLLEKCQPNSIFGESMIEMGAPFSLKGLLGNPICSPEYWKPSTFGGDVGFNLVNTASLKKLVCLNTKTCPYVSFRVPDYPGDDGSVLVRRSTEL
Outline: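 Peritoneal macrophages from C57BL/6 mice, without aspirin or LPS treatment, were plated at 1×10^6 cells/ml and fixed 2 h at 37 °C. Cells were preincubated 10 min, then given 10 μM arachidonic acid plus compound for 10 min; PGE2 was measured by RIA or EIA. IC50 came from 4–5 concentrations.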

[1] = Pharmacokinetic studies in rats; type: in vivo, rat
Description: An appropriate amount of a compound suspended 1% aqueous methylcellulose solution was administered to a male SD rat by oral gavage. Blood samples were collected from the retro-orbital sinus at designated times over 24˜48 hours. Plasma was separated from each blood sample by centrifugation and the plasma was stored at 4° C. until analysis. The plasma samples prepared thereby were subjected to analysis by reverse phase HPLC (high performance liquid chromatography) using an appropriate internal standard.

[2] = test system: male Sprague-Dawley (SD) rats; experiment: Carrageenan-induced foot edema in rats (CFE); type: in vivo; details: oral dose 1 mg/kg body weight, rat, paw volume 3 hours after Carrageenan
Description: An appropriate amount of a compound of this invention suspended in 1% methylcellulose (MC) solution was administered to male Sprague-Dawley (SD) rats weighing 150˜200 g by oral gavage. The volume of the administered vehicle for a compound of this invention was controlled to be smaller than 10 ml/kg body weight of the animal. One hour later, 0.1 ml of 1% Carrageenan saline solution was directly injected into the right paw of the rats to induce edema in the paw. The paw volumes at 0 hour and at 3 hours after the injection of Carrageenan were measured by using a displacement plethysmometer (Ugo Basile, Italy). The paw volumes were used to calculate % inhibition of CFE by an amount of a compound of this invention according to the following equation.
% Inhibition of CFE=(1−Δtreated/Δcontrol)×100
wherein Δtreated=[paw volume at three hours after the Carrageenan injection−paw volume right after Carrageenan injection] for a drug-administered rat, and Δcontrol=[paw volume at three hours after the Carrageenan injection−paw volume right after Carrageenan injection] for a rat without drug administration.
In order to determine the inhibitory activity of a compound of this invention at a dose, usually 5 to 8 animals were used both for drug-treated group and for control group.

ICR mice = experiment: Acetic acid-induced writhing test; type: in vivo, mouse; details: oral gavage
Description: ICR mice weighing 18˜22 g were maintained in a controlled lighting environment (12 hours on/12 hours off) and fasted overnight prior analgesic testing. Mice were administered with a compound of this invention dissolved in 10:10:80 ethanol/Tween 80/saline or vehicle only by oral gavage. The administered vehicle volume was controlled to be 10 ml/kg body weight. One hour later, the animals were treated with 0.2 ml of 1.2% acetic acid by peritoneal injection. 6 minutes later, the number of abdominal constrictions was counted for a 6 minutes period. The antinociceptive activity was expressed as the reduction in the number of abdominal constrictions, compared with that of the placebo group [J. Med. Chem. 39, 4942 (1996)]. ED50 of the mouse writhing test denotes a dose level at which the number of abdominal constrictions is half that of the placebo group. Ten animals per group were used for this study.

male SD rats = experiment: Carrageenan-induced thermal hyperalgesia assay; type: in vivo, rat; details: 3 hours
Description: Male SD rats weighing 170˜220 g were fasted but with free access to water for at leat 16 hours prior to testing. The rats were administered with a compound of this invention suspended in 20 ml 0.5% methylcellulose/0.025% Tween-20, or with vehicle only. Then the rats were given […] of 1% carrageenan in saline or […] saline only into the plantar surface of the left hindpaw by injection. Three hours later, the nociceptive responses to thermal stimuli were assessed as follows: Rats, which were placed in a transparent plastic chamber with a glass floor, were allowed to acclimate to their environment for 10 minutes prior to the testing. The withdrawal latency period in seconds was determined for the control and the compound treated group, and a percent inhibition in the withdrawal latency was calculated to estimate the analgesic effect of the compound [Pain 32, 77 (1988)]. In this study 6 animals were used for each group.

male SD rat = experiment: Gastric safety studies (Ulcer Index); type: in vivo; details: daily dose 30 mg/kg body weight oral for 7 days, mean of animals' scores
Description: Gastric safety for compounds of this invention was evaluated as follows [Otterness et al., Laboratory Models for Testing Nonsteroidal Anti-inflammatory Drugs in Nonsteroidal Anti-inflammatory Drugs; ed John Wiley & Sons pp 217-227 (1985); Wiley Interscience; New York]: A designated dose of a compound of this invention suspended in 1% methylcellulose solution was administered daily once for 7 days to a male SD rat by oral gavage. The animal was sacrificed and the inner wall of the stomach was examined visually 4 hours after the last administration (the 7th day administration). The gastric safety was assessed by the “Ulcer Index” as defined as the following scores: […]
Score 1: apparently normal stomach.
Score 2: one or more than one ulcer site of pin-point size only.
Score 3: erosions of 2 or fewer than 2, which may be accompanied by ulcers of pin-point size (an erosion is defied by any ulcerative lesion of any dimension greater than 1 mm).
Score 4: erosions more than 2, which may be accompanied by ulcers of pin-point size.
Score 5: erosions accompanied by hemorrhage.
In evaluating the gastric safety of a compound of this invention, usually 8 animals were used. The ulcer index for a compound was calculated by averaging of the ulcer index of each animal. The following Table 5 illustrates gastric safety of some COX-2 selective inhibitors of this invention.

| IC50, μg/ml COX-2 (COX-2) [µg/mL] | IC50, μg/ml COX-1 (COX-1) [µg/mL] | biotransformation of the sulfoxide group into the sulfonyl group ([1]; Example 393 orally administered to a SD rat at 10 mg/kg body weight, plasma, HPLC (FIG. 1)) | amounts detected in the plasma ([1]; metabolite in plasma after oral administration of Example 393 to a SD rat at 10 mg/kg body weight (FIG. 1)) | melting point [°C] | SMILES | % Inhibition (CFE) [2] [%] | ED50 (mouse writhing) (ICR mice) [mg/kg body weight] | % Inhibition at 1.0 mg/kg body weight (rat hyperalgesia) (male SD rats) [%] | Ulcer Index (1˜5) (male SD rat) |
| --- | --- | --- | --- | --- | --- | --- | --- | --- | --- |
| 0.3 (≈ 0.831 µM) | 5 (≈ 13.9 µM) | biotransformed into the sulfonyl group | – | – | C[S+]([O-])c1ccc(C2=C(c3cccc(Cl)c3)C(=O)C(C)(C)O2)cc1 (stereo not shown) [Example 393, 4-(3-Chlorophenyl)-2,2-dimethyl-5-{4-(methylsulfinyl)phenyl}-3(2H)-furanone] | – | – | – | – |
| – | – | – | – | – | COc1ccc2c(c1)c(CC(=O)O)c(C)n2C(=O)c1ccc(Cl)cc1 [indomethacin, reference compound] | 28 | 7.4 | 45 | – |
| 0.01 (≈ 0.0265 µM) | 2 (≈ 5.31 µM) | – | appreciable amounts | 151 to 152 | CC1(C)OC(c2ccc(S(C)(=O)=O)cc2)=C(c2cccc(Cl)c2)C1=O [Example 62, 4-(3-Chlorophenyl)-2,2-dimethyl-5-{4-(methylsulfonyl)phenyl}-3(2H)-furanone] | – | – | – | – |
| 0.3 (≈ 0.78 µM) | 50 (≈ 130 µM) | – | – | – | CC(=O)c1ccc(C2=C(c3ccc(S(C)(=O)=O)cc3)OC(C)(C)C2=O)cc1 [Example 10, 4-(4-Acetylphenyl)-2,2-dimethyl-5-{4-(methylsulfonyl)phenyl}-3(2H)-furanone] | – | – | – | 1.2 ± 0.4 |
